Data reported in ChEMBL document CHEMBL6153153, “Use of Aldehyde-Alkyne-Amine Couplings to Generate Medicinal Chemistry-Relevant Linkers” (ACS Med Chem Lett, 2025).
Active and inactive are the calls of the source. The rule behind the calls is not given here.

Tests used:
[1] = Solubility of compound; format: physicochemical
[2] = Solubility of compound in 5 percent PBS buffer; format: physicochemical
[3] = Solubility of the compound in saline; format: physicochemical; details: buffer
HEK293 [4] = experiment: PROTAC activity at E3 ligase/short BRD4 (unknown origin) expressed in HEK293 cells assessed as induction of BRD4 degradation at 300 to 1000 nM incubated for 18 hrs in presence of thalidomide by Western blot analysis; format: cell-based; details: Homo sapiens, dose 300-1000 nM
HEK293 [5] = experiment: PROTAC activity at E3 ligase/long BRD4 (unknown origin) expressed in HEK293 cells assessed as induction of BRD4 degradation at 300 to 1000 nM incubated for 18 hrs in presence of thalidomide by Western blot analysis; format: cell-based; details: Homo sapiens, dose 300-1000 nM
HEK293 [6] = experiment: PROTAC activity at E3 ligase/short BRD4 (unknown origin) expressed in HEK293 cells assessed as induction of BRD4 degradation at 300 to 1000 nM incubated for 18 hrs in presence of MG132 by Western blot analysis; format: cell-based; details: Homo sapiens, dose 300-1000 nM
HEK293 [7] = experiment: PROTAC activity at E3 ligase/long BRD4 (unknown origin) expressed in HEK293 cells assessed as induction of BRD4 degradation at 300 to 1000 nM incubated for 18 hrs in presence of MLN4924 by Western blot analysis; format: cell-based; details: Homo sapiens, dose 300-1000 nM
HEK293 [8] = experiment: PROTAC activity at E3 ligase/long BRD4 (unknown origin) expressed in HEK293 cells assessed as induction of BRD4 degradation at 300 to 1000 nM incubated for 18 hrs in presence of MG132 by Western blot analysis; format: cell-based; details: Homo sapiens, dose 300-1000 nM
HEK293 [9] = experiment: PROTAC activity at E3 ligase/long BRD4 (unknown origin) expressed in HEK293 cells assessed as induction of BRD4 degradation at 300 to 1000 nM incubated for 18 hrs by Western blot analysis; format: cell-based; details: Homo sapiens, dose 300-1000 nM
HEK293 [10] = experiment: PROTAC activity at E3 ligase/short BRD4 (unknown origin) expressed in HEK293 cells assessed as induction of BRD4 degradation at 300 to 1000 nM incubated for 18 hrs in presence of MLN4924 by Western blot analysis; format: cell-based; details: Homo sapiens, dose 300-1000 nM
HEK293 [11] = experiment: PROTAC activity at E3 ligase/short BRD4 (unknown origin) expressed in HEK293 cells assessed as induction of BRD4 degradation at 300 to 1000 nM incubated for 18 hrs by Western blot analysis; format: cell-based; details: Homo sapiens, dose 300-1000 nM

Cc1ncsc1-c1ccc(CNC(=O)[C@@H]2C[C@@H](O)CN2C(=O)[C@@H](NC(=O)CCCCC(=O)NC2CCN(C(C#CCCSc3ccc(C(=O)NCCNC(=O)C[C@@H]4N=C(c5ccc(Cl)cc5)c5c(sc(C)c5C)-n5c(C)nnc54)cc3)C3CCOCC3)CC2)C(C)(C)C)cc1 (some centres undefined)
solubility [1]: Insoluble

Cc1sc2c(c1C)C(c1ccc(Cl)cc1)=N[C@@H](CC(=O)NCC#CC(C1CCN(C(=O)COc3cccc4c3C(=O)N(C3CCC(=O)NC3=O)C4=O)CC1)N1CCN(C(=O)COc3cccc4c3C(=O)N(C3CCC(=O)NC3=O)C4=O)CC1)c1nnc(C)n1-2 (some centres undefined)
solubility [2]: Insoluble | solubility [3]: Insoluble | solubility [1]: Insoluble

Cc1sc2c(c1C)C(c1ccc(Cl)cc1)=N[C@@H](CC(=O)NCCNC(=O)c1ccc(SCCC#CC(C3CCOCC3)N3CCC(NC(=O)COc4cccc5c4C(=O)N(C4CCC(=O)NC4=O)C5=O)CC3)cc1)c1nnc(C)n1-2 (some centres undefined)
Activity (HEK293 [4]): inactive | Activity (HEK293 [5]): inactive | Activity (HEK293 [6]): inactive | Activity (HEK293 [7]): inactive | Activity (HEK293 [8]): inactive | Activity (HEK293 [9]): Active | solubility [2]: Insoluble | Activity (HEK293 [10]): inactive | solubility [3]: Insoluble | Activity (HEK293 [11]): Active
